Reference: patent US4401660A, “Ester derivatives of 5-O-mycaminosyl tylonolide and method of using same” (Eli Lilly and Company, priority 1981, dated 1983)
Read-outs that look alike come from different tables or passages of the source.

What was measured:
[1] = test system: Haemophilus influenzae Holt; test: MIC, standard agar-dilution assay (Table II); format: cell-based; parameters: unit not given here; settings: ampicillin-sensitive strain
Procedure: (§1) The MIC's in Table II were determined by standard agar-dilution assays. The MIC's in Table III were obtained using a conventional broth-dilution microtiter test.

[2] = test system: Haemophilus influenzae R252; test: MIC, standard agar-dilution assay (Table II); format: cell-based; parameters: unit not given here; settings: Haemophilus influenzae R252, ampicillin-resistant strain
Procedure: as §1

[3] = test system: Staphylococcus aureus S13E; test: MIC, standard agar-dilution assay (Table II); format: cell-based; parameters: unit not given here
Procedure: as §1

[4] = test system: Staphylococcus aureus V41; test: MIC, standard agar-dilution assay (Table II); format: cell-based; parameters: unit not given here; settings: Staphylococcus aureus V41, penicillin-resistant strain
Procedure: as §1

[5] = test system: Staphylococcus aureus X1.1; test: MIC, standard agar-dilution assay (Table II); format: cell-based; parameters: unit not given here
Procedure: as §1

[6] = test system: Staphylococcus aureus X400; test: MIC, standard agar-dilution assay (Table II); format: cell-based; parameters: unit not given here; settings: Staphylococcus aureus X400, methicillin-resistant strain
Procedure: as §1

[7] = test system: Staphylococcus epidermidis EPI1; test: MIC, standard agar-dilution assay (Table II); format: cell-based; parameters: unit not given here
Procedure: as §1

[8] = test system: Staphylococcus epidermidis EPI2; test: MIC, standard agar-dilution assay (Table II); format: cell-based; parameters: unit not given here
Procedure: as §1

[9] = test system: Streptococcus Group D 9960; test: MIC, standard agar-dilution assay (Table II); format: cell-based; parameters: unit not given here
Procedure: as §1

[10] = test system: Streptococcus Group D X66; test: MIC, standard agar-dilution assay (Table II); format: cell-based; parameters: unit not given here
Procedure: as §1

[11] = test system: Streptococcus pneumoniae Park I; test: MIC, standard agar-dilution assay (Table II); format: cell-based; parameters: unit not given here
Procedure: as §1

[12] = test system: Streptococcus pyogenes C203; test: MIC, standard agar-dilution assay (Table II); format: cell-based; parameters: unit not given here
Procedure: as §1

Mycoplasma gallisepticum = test: MIC, broth-dilution microtiter test (Table III); format: cell-based; parameters: unit not given here
Procedure: as §1

Mycoplasma hyorhinis = test: MIC, broth-dilution microtiter test (Table III); format: cell-based; parameters: unit not given here
Procedure: as §1

Mycoplasma synoviae = test: MIC, broth-dilution microtiter test (Table III); format: cell-based; parameters: unit not given here
Procedure: as §1

[13] = test system: Pasteurella haemolytica 22C; test: MIC, broth-dilution microtiter test (Table III); format: cell-based; parameters: unit not given here
Procedure: as §1

[14] = test system: Pasteurella haemolytica 23C; test: MIC, broth-dilution microtiter test (Table III); format: cell-based; parameters: unit not given here
Procedure: as §1

[15] = test system: Pasteurella haemolytica 41D; test: MIC, broth-dilution microtiter test (Table III); format: cell-based; parameters: unit not given here
Procedure: as §1

[16] = test system: Pasteurella multocida 17E; test: MIC, broth-dilution microtiter test (Table III); format: cell-based; parameters: unit not given here; settings: bovine isolate
Procedure: as §1

[17] = test system: Pasteurella multocida 22A; test: MIC, broth-dilution microtiter test (Table III); format: cell-based; parameters: unit not given here
Procedure: as §1

[18] = test system: Pasteurella multocida 40G; test: MIC, broth-dilution microtiter test (Table III); format: cell-based; parameters: unit not given here
Procedure: as §1

[19] = test system: Pasteurella multocida 60A; test: MIC, broth-dilution microtiter test (Table III); format: cell-based; parameters: unit not given here; settings: avian isolate
Procedure: as §1

[20] = test system: Pasteurella multocida 68C; test: MIC, broth-dilution microtiter test (Table III); format: cell-based; parameters: unit not given here
Procedure: as §1

Staphylococcus aureus = test: MIC, broth-dilution microtiter test (Table III); format: cell-based; parameters: unit not given here
Procedure: as §1

Streptococcus sp. 80 = test: MIC, broth-dilution microtiter test (Table III); format: cell-based; parameters: unit not given here
Procedure: as §1

Pasteurella multocida = test: Treatment of Pasteurella infections in chicks (Table V); format: in vivo, one-day-old chicks; settings: Pasteurella multocida, sc, 4 h; 30 mg/kg by subcutaneous injection one and four hours post challenge; read-out: Deaths in Treated Chicks/Number Treated (converted)
Method in brief: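 One-day-old chicks challenged subcutaneously with avian P. multocida (0.1 ml of 10^-3 dilution of 20-hour tryptose broth culture). Esters given at 30 mg/kg subcutaneously at 1 and 4 hours post challenge. Untreated infected controls, ten per group.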

[21] = test system: Streptococcus pyogenes C203; test: ED50 in mice with experimental infections (Table IV); format: in vivo; settings: Streptococcus pyogenes, doses given 1 and 4 hours postinfection
Procedure: The OMT ester derivatives of this invention have shown in vivo antimicrobial activity against experimental bacterial infections caused by gram-positive bacteria. When two doses of test compound were administered to mice with experimental infections, the activity observed was measured as an ED50 value [effective dose in mg/kg to protect 50% of the test animals: see Warren Wick, et al., J. Bacteriol. 81, 233-235 (1961)].
^a mg/kg × 2; doses given 1 and 4 hours postinfection

| Structure (SMILES) | minimal inhibitory concentration (MIC) [1] | minimal inhibitory concentration (MIC) [2] | minimal inhibitory concentration (MIC) [3] | minimal inhibitory concentration (MIC) [4] | minimal inhibitory concentration (MIC) [5] | minimal inhibitory concentration (MIC) [6] | minimal inhibitory concentration (MIC) [7] | minimal inhibitory concentration (MIC) [8] | minimal inhibitory concentration (MIC) [9] | minimal inhibitory concentration (MIC) [10] | minimal inhibitory concentration (MIC) [11] | minimal inhibitory concentration (MIC) [12] | minimal inhibitory concentration (MIC) (Mycoplasma gallisepticum) | minimal inhibitory concentration (MIC) (Mycoplasma hyorhinis) | minimal inhibitory concentration (MIC) (Mycoplasma synoviae) | minimal inhibitory concentration (MIC) [16] | minimal inhibitory concentration (MIC) [19] | minimal inhibitory concentration (MIC) (Staphylococcus aureus) | minimal inhibitory concentration (MIC) (Streptococcus sp. 80) | mortality at 30 mg/kg (Pasteurella multocida) [%] | other results |
| --- | --- | --- | --- | --- | --- | --- | --- | --- | --- | --- | --- | --- | --- | --- | --- | --- | --- | --- | --- | --- | --- |
| CCC1OC(=O)CC(O)C(C)C(OC2OC(C)C(O)C(N(C)C)C2O)C(CC=O)CC(C)C(=O)C=CC(C)=CC1COS(=O)(=O)c1ccc(NC(C)=O)cc1 (centres unmarked) [Compound 56, 23-O-(p-Acetamidobenzenesulfonyl)-OMT] | 2 | 2 | 1 | 2 | 1 | 2 | 0.5 | 2 | 1 | 1 | 0.06 | 0.125 | 0.39 | 12.5 | 0.78 | 3.12 | 3.12 | 0.78 | 0.195 | 100 | minimal inhibitory concentration (MIC) [13]: 6.25; minimal inhibitory concentration (MIC) [14]: 6.25; minimal inhibitory concentration (MIC) [15]: 6.25; minimal inhibitory concentration (MIC) [17]: 6.25; minimal inhibitory concentration (MIC) [18]: 6.25; minimal inhibitory concentration (MIC) [20]: 3.12 |
| CCC1OC(=O)CC(O)C(C)C(OC2OC(C)C(O)C(N(C)C)C2O)C(CC=O)CC(C)C(=O)C=CC(C)=CC1COC(=O)Cc1ccc([N+](=O)[O-])cc1 (centres unmarked) [Compound 65] | 1 | 1 | 0.125 | 0.125 | 0.125 | 0.125 | 0.125 | 0.125 | 0.125 | 0.125 | 0.03 | 0.06 | 0.195 | 0.78 | < 0.05 | 3.12 | 3.12 | 0.39 | 0.195 | 73.3 | minimal inhibitory concentration (MIC) [13]: 3.12; minimal inhibitory concentration (MIC) [14]: 3.12; minimal inhibitory concentration (MIC) [15]: 3.12; minimal inhibitory concentration (MIC) [17]: 3.12; minimal inhibitory concentration (MIC) [18]: 1.56; minimal inhibitory concentration (MIC) [20]: 3.12 |
| CCC(=O)OCC1C=C(C)C=CC(=O)C(C)CC(CC=O)C(OC2OC(C)C(O)C(N(C)C)C2OC(=O)CC)C(C)C(O)CC(=O)OC1CC (centres unmarked) [Compound 10, 2',23-Di-O-Propionyl-OMT] | 2 | 8 | 0.5 | 0.5 | 0.25 | 0.5 | 0.25 | 0.25 | 0.5 | 0.5 | 0.125 | 0.25 | 0.097 | 0.78 | 0.097 | 1.56 | 1.56 | 0.39 | 0.195 | 10 | minimal inhibitory concentration (MIC) [13]: 6.25; minimal inhibitory concentration (MIC) [14]: 6.25; minimal inhibitory concentration (MIC) [15]: 6.25; minimal inhibitory concentration (MIC) [17]: 6.25; minimal inhibitory concentration (MIC) [18]: 1.56; minimal inhibitory concentration (MIC) [20]: 1.56 |
| CCC(=O)OCC1C=C(C)C=CC(=O)C(C)CC(CC=O)C(OC2OC(C)C(OC(=O)CC)C(N(C)C)C2OC(=O)CC)C(C)C(O)CC(=O)OC1CC (centres unmarked) [Compound 8, 2',4',23-Tri-O-propionyl-OMT] | 2 | 4 | 0.5 | 0.5 | 0.25 | 0.5 | 0.25 | 0.25 | 0.5 | 0.5 | 0.25 | 0.25 | 0.048 | 0.78 | 0.048 | 1.56 | 1.56 | 0.39 | 0.195 | 60 | minimal inhibitory concentration (MIC) [13]: 3.12; minimal inhibitory concentration (MIC) [14]: 6.25; minimal inhibitory concentration (MIC) [15]: 3.12; minimal inhibitory concentration (MIC) [17]: 3.12; minimal inhibitory concentration (MIC) [18]: 1.56; minimal inhibitory concentration (MIC) [20]: 1.56 |
| CCC1OC(=O)CC(O)C(C)C(OC2OC(C)C(O)C(N(C)C)C2O)C(CC=O)CC(C)C(=O)C=CC(C)=CC1COC(=O)CC(C)C (centres unmarked) [Compound 22] | 2 | 4 | 0.25 | 0.25 | 0.25 | 0.5 | 0.25 | 0.25 | 0.5 | 0.5 | 0.125 | 0.25 | < 0.05 | 0.78 | < 0.05 | 1.56 | 3.12 | 0.78 | 0.097 | 10 | ED50 ([21]; C203, oral, read-out: ED50, Oral): > 150 mg/kg; ED50 ([21]; C203, sc, subcutaneous, read-out: ED50, Subcutaneous): 7.5 mg/kg |
| CCC1OC(=O)CC(O)C(C)C(OC2OC(C)C(O)C(N(C)C)C2OC(C)=O)C(CC=O)CC(C)C(=O)C=CC(C)=CC1COC(=O)COc1ccccc1 (centres unmarked) [Compound 35] | 1 | 1 | 0.125 | 0.125 | 0.125 | 0.125 | 0.125 | 0.125 | 0.125 | 0.125 | 0.03 | 0.06 | < 0.05 | 3.12 | 0.097 | 1.56 | 1.56 | 0.39 | 0.097 | 10 | minimal inhibitory concentration (MIC) [13]: 3.12; minimal inhibitory concentration (MIC) [14]: 3.12; minimal inhibitory concentration (MIC) [15]: 1.56; minimal inhibitory concentration (MIC) [17]: 6.25; minimal inhibitory concentration (MIC) [18]: 3.12; minimal inhibitory concentration (MIC) [20]: 1.56 |
